Test results published in ChEMBL document CHEMBL1800064, “Biaryl ethers as potent allosteric inhibitors of reverse transcriptase and its key mutant viruses: aryl substituted pyrazole as a surrogate for the pyrazolopyridine motif” (Bioorg Med Chem Lett, 2010).
pKi: −log10 of the molar value.

Assays:
[1] = biological target: Human immunodeficiency virus type 1 reverse transcriptase (Human immunodeficiency virus 1, UniProt Q72547, K103N); assay: Inhibition of HIV1 reverse transcriptase K103N mutant by SPA assay
[2] = biological target: Human immunodeficiency virus type 1 reverse transcriptase (Human immunodeficiency virus 1, UniProt Q72547); assay: Inhibition of wild type HIV1 reverse transcriptase by SPA assay
[3] = system: Human immunodeficiency virus 1; assay: Antiviral activity against HIV1 R8 harboring reverse transcriptase infected in human MT4 cells assessed as inhibition of viral spread in presence of 50% normal human serum; assay type: functional; details: Human immunodeficiency virus 1, R8, MT4; read-out: CIC95
[4] = system: Human immunodeficiency virus 1; assay: Antiviral activity against HIV1 R8 harboring wild type reverse transcriptase infected in human MT4 cells assessed as inhibition of viral spread in presence of 10% fetal bovine serum; assay type: functional; details: Human immunodeficiency virus 1, R8, MT4; read-out: CIC95
[5] = system: Human immunodeficiency virus 1; assay: Antiviral activity against HIV1 R8 harboring reverse transcriptase Y181C mutant infected in human MT4 cells assessed as inhibition of viral spread in presence of 10% fetal bovine serum; assay type: functional; details: Human immunodeficiency virus 1, R8, MT4; read-out: CIC95
[6] = biological target: T1, Human immunodeficiency virus type 1 reverse transcriptase (Human immunodeficiency virus 1, UniProt Q72547, Y181C); assay: Inhibition of HIV1 reverse transcriptase Y181C mutant by electrochemiluminescent assay
[7] = system: Human immunodeficiency virus 1; assay: Antiviral activity against HIV1 R8 harboring reverse transcriptase K103N mutant infected in human MT4 cells assessed as inhibition of viral spread in presence of 10% fetal bovine serum; assay type: functional; details: Human immunodeficiency virus 1, R8, MT4; read-out: CIC95
[8] = biological target: T1, Human immunodeficiency virus type 1 reverse transcriptase; assay: Inhibition of HIV1 reverse transcriptase Y181C mutant by SPA assay
[9] = system: Human immunodeficiency virus 1; assay: Antiviral activity against HIV1 R8 harboring reverse transcriptase K103N/Y181C double mutant infected in human MT4 cells assessed as concentration required to inhibit >95% viral spread in presence of 10% FBS; assay type: functional; details: Human immunodeficiency virus 1, R8, MT4; read-out: CIC95

SMILES	pKi [1]	pKi [2]	IC95 [3] [nM]	IC95 [4] [nM]	IC95 [5] [nM]	pKi [6]	IC95 [7] [nM]	pKi [8]	IC95 [9] [nM]
N#Cc1cc(Cl)cc(Oc2cc(OCc3nc(-c4ccc(Cl)cc4)no3)ccc2Cl)c1	6.89	7.51	> 8300	> 8300					
N#Cc1cc(Cl)cc(Oc2cc(OCc3n[nH]c(-c4ccncc4)c3Cl)ccc2Cl)c1	9.15	9.30	307	97	278	9.30	102		
N#Cc1cc(Cl)cc(Oc2cc(OCc3nnc(-c4ccc(Cl)cc4)o3)ccc2Cl)c1	7.96	8.31	830	2780					
N#Cc1cc(Cl)cc(Oc2cc(OCc3ncc(-c4ccc(Cl)cc4)o3)ccc2Cl)c1	8.36	8.68	277	926					
N#Cc1cc(Cl)cc(Oc2cc(OCc3cc(-c4ccccc4)on3)ccc2Cl)c1	8.26	8.59	8330	926	833		2780	7.69	
N#Cc1cc(Cl)cc(Oc2cc(OCc3cc(-c4ccccn4)[nH]n3)ccc2Cl)c1	8.02	8.49	307	97	> 833		307	8.05	
N#Cc1cc(Cl)cc(Oc2cc(OCc3cc(-c4cc[n+]([O-])cc4)[nH]n3)ccc2Cl)c1	7.68	8.28	307	44	500		307	7.34	
N#Cc1cc(Cl)cc(Oc2cc(OCc3cc(-c4ccccc4)[nH]n3)ccc2Cl)c1	8.62	9.05	924	222	833		924	7.90	
N#Cc1cc(Cl)cc(Oc2cc(OCc3cn(-c4ccccc4)nn3)ccc2Cl)c1	6.02	7.17							
N#Cc1cc(Cl)cc(Oc2cc(OCc3n[nH]c(-c4ccccn4)c3Cl)ccc2Cl)c1	9.30	9.40	922	922		9.22	2770		
O=C1Nc2ccc(Cl)cc2[C@@](C#CC2CC2)(C(F)(F)F)O1 [EFAVIRENZ]			38	4.3	8		232		272
N#Cc1cc(Cl)cc(Oc2cc(OCc3n[nH]cc3-c3ccccc3)ccc2Cl)c1	< 6.47	6.34	> 8300	8300				< 5.52	
COc1ccc(-c2nnc(COc3ccc(Cl)c(Oc4cc(Cl)cc(C#N)c4)c3)o2)cc1	8.03	8.28	926	926					
COc1ccc(-c2noc(COc3ccc(Cl)c(Oc4cc(Cl)cc(C#N)c4)c3)n2)cc1	7.52	8.68	> 8300	> 8300					
N#Cc1cc(Cl)cc(Oc2cc(OCc3cc(-c4cccs4)[nH]n3)ccc2Cl)c1	8.34	8.80	307	168	178		922	7.31	
N#Cc1cc(Cl)cc(Oc2cc(OCc3cc(-c4ccco4)[nH]n3)ccc2Cl)c1	8.00	9.52	922	97	833		922	8.82	
N#Cc1cc(Cl)cc(Oc2cc(OCc3nc(-c4ccccn4)no3)ccc2Cl)c1	7.16	7.54	> 8300	> 8300					
N#Cc1cc(Cl)cc(Oc2cc(OCc3n[nH]c(-c4ccc(-c5nnn[nH]5)cc4)c3Cl)ccc2Cl)c1	9.15	9.52	> 8330	2780		9.22	8330		
N#Cc1ccc(-c2cc(COc3ccc(Cl)c(Oc4cc(Cl)cc(C#N)c4)c3)n[nH]2)cc1	8.44	9.15	922	34		7.92	307		
N#Cc1cc(Cl)cc(Oc2cc(OCc3cc(-c4cccnc4)[nH]n3)ccc2Cl)c1	8.28	8.96	307	32	278		307	8.17	
Cn1cc(-c2cc(COc3ccc(Cl)c(Oc4cc(Cl)cc(C#N)c4)c3)n[nH]2)cn1	8.38	9.15	307	32	278	8.52	102		
N#Cc1cc(Cl)cc(Oc2cc(OCc3cc(-c4ccccc4)no3)ccc2Cl)c1	6.94	7.51	> 8300	> 8300			> 8330	6.12	
N#Cc1cc(Cl)cc(Oc2cc(OCc3cc[nH]n3)ccc2Cl)c1	6.75	7.41	8300	922			8300	6.85	
N#Cc1cc(Cl)cc(Oc2cc(OCc3nc(-c4ccccc4)no3)ccc2Cl)c1	7.25	7.82							
